The structures appear in SMILES notation.

Consider four compounds from ChEMBL document CHEMBL5465560, “Selectivity Literature for EUbOPEN Chemogenomic Library” (2024).

In assay [1] the target is T1, Dual specificity tyrosine-phosphorylation-regulated kinase 2 (Homo sapiens) (UniProt Q92630).
T1 sequence (whole entry): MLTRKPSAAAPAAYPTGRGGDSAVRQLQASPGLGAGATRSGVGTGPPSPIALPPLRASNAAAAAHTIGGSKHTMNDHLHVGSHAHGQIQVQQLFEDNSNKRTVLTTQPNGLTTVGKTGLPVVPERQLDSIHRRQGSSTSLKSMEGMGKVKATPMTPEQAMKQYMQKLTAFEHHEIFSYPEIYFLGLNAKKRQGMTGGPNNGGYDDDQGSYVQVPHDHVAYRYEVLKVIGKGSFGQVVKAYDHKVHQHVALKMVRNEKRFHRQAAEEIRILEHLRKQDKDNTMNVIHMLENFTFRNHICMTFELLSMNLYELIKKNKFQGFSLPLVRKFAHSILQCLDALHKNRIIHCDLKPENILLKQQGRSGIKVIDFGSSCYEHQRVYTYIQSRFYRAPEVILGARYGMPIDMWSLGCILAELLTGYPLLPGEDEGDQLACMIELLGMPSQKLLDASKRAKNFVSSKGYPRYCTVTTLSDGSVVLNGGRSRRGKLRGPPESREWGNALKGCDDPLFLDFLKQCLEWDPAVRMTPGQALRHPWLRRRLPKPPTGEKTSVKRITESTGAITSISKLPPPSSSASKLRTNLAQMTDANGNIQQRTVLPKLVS
Conditions: at 10 µM.

Assay [2] concerns the target T2, Ephrin type-A receptor 3 (Homo sapiens) (UniProt P29320).
T2 sequence (whole entry): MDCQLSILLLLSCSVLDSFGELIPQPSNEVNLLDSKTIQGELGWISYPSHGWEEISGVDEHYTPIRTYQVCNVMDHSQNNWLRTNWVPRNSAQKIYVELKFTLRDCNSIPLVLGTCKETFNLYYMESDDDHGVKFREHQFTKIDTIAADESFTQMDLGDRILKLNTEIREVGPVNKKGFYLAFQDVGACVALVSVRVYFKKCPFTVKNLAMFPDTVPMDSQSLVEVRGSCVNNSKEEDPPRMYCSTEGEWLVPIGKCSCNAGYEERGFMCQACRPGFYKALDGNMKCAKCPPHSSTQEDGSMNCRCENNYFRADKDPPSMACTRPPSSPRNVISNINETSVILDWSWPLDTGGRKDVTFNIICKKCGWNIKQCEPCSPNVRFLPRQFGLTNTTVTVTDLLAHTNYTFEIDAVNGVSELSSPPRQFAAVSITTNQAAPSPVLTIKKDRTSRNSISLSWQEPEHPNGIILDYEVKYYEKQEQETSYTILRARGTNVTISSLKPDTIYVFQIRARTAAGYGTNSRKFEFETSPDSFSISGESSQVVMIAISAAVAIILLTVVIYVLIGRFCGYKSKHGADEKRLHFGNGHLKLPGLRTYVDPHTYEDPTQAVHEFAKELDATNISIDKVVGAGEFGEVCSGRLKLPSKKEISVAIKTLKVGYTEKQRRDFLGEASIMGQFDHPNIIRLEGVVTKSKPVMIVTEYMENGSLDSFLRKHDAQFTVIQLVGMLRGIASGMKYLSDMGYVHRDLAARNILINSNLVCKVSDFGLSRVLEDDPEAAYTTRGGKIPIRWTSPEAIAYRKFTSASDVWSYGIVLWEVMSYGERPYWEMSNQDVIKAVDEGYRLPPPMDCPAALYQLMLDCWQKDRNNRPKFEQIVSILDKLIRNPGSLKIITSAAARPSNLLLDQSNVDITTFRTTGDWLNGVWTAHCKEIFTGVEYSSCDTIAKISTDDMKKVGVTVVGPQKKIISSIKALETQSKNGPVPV
Nature of the assay: Selectivity interaction (KinomeScan (DiscoverX)) EUB0001619a EPHA3. Conditions: at 1 µM.

Assay [3] concerns the target T3, MAP/microtubule affinity-regulating kinase 4 (Homo sapiens) (UniProt Q96L34).
T3 sequence (whole entry): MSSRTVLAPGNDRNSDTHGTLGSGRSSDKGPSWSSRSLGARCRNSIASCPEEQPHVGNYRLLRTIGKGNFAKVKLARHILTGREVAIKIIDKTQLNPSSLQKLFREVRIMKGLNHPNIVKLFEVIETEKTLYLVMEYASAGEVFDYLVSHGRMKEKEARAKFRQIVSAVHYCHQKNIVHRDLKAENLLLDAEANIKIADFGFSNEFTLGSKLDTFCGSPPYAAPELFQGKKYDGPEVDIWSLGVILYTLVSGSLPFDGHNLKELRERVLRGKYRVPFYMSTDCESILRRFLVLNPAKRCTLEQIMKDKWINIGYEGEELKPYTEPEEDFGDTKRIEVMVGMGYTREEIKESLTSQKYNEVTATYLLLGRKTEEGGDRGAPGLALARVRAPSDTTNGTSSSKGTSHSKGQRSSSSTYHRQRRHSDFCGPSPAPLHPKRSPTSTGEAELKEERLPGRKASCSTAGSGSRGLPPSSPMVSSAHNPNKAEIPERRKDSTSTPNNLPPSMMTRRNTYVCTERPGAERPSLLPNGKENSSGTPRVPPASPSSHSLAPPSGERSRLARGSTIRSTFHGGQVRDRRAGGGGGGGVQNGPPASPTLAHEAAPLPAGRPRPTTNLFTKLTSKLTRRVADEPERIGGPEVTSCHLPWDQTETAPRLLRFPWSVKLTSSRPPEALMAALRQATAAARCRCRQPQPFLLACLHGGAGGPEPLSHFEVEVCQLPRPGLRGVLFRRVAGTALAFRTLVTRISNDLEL
Nature of the assay: Selectivity interaction (ActivX KiNativ screen (kinase selectivity in THP-1 cell lysates)) EUB0000639a MARK4. Format: subcellular. The following applies: lysate, at 0.04 µM.

Assay [4] concerns the target 5'-AMP-activated protein kinase catalytic subunit alpha-1 (Homo sapiens, UniProt Q13131). Nature of the assay: Selectivity interaction (Kinase panel (Invitrogen)) EUB0000639a PRKAA1. The following applies: at 200 nM.
Assay [5] addresses Serine/threonine-protein kinase PAK 4 (Homo sapiens, UniProt O96013). Nature of the assay: Selectivity interaction (Kinase panel (DSF assay)) EUB0001559a PAK4. (In DSF a fluorescence change marks the thermal transition of the protein.)

Chain of Serine/threonine-protein kinase PAK 4 (O96013 whole entry, looked up): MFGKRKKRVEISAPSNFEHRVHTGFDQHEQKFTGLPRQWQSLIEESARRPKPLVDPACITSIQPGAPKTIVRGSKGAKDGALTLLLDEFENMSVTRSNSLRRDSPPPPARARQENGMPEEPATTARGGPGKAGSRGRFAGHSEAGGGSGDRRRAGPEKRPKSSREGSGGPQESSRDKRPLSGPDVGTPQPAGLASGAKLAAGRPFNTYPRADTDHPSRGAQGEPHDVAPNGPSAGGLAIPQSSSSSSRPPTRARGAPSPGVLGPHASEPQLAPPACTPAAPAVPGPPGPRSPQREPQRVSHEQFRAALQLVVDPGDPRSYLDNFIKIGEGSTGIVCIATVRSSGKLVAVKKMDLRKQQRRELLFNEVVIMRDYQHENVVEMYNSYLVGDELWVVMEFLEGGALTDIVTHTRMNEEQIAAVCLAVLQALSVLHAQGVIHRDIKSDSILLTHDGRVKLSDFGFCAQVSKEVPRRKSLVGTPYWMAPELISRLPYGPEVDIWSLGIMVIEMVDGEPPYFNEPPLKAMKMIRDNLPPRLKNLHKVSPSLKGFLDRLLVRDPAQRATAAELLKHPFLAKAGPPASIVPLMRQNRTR
Chain of 5'-AMP-activated protein kinase catalytic subunit alpha-1 (Q13131 whole entry, looked up): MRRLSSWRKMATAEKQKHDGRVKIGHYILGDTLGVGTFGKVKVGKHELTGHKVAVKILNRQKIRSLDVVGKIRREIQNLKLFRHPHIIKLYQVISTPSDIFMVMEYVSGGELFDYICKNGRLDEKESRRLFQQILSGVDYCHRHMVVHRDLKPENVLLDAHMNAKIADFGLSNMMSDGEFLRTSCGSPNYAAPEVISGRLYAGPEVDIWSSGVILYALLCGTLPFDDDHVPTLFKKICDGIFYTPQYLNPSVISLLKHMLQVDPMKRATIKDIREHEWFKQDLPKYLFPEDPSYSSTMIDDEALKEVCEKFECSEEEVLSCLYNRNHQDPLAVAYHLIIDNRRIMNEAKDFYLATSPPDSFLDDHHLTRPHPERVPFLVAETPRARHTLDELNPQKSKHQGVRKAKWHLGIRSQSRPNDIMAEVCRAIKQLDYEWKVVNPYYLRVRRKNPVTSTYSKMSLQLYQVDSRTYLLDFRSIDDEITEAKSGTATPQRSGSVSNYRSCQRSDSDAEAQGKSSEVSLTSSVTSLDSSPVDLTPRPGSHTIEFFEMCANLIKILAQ

For `Cc1cc([C@@H](C)Nc2ccccc2C(=O)O)c2nc(N3CCOCC3)cc(=O)n2c1` [AZD-6482], in assay [1], the % of control is 89%. As to `N#Cc1cccc(-c2c[nH]c3ncnc(N4CCOCC4)c23)c1`, the % of control in assay [2] was determined as 66%. As to `CC[C@@H]1[C@H](F)C(=O)N[C@@H]1COc1nccc2cc(C(N)=O)c(OC)cc12` [ZIMLOVISERTIB], the % of inhibition worked out at 15.9% in assay [3] and 13.1% in assay [4]. With `CN(C(=O)c1cnn2cccnc12)c1cc2c(cc1N1CCOCC1)C(=O)N(C[C@@H](F)C(C)(C)O)C2`, the dTM in assay [5] stood at 0.4 K.
